Results reported in patent publication US20140031278A1, “Novel Glucagon Analogues” (NOVO NORDISK A/S, priority 2011, published 2014).
pEC50: −log10 of the molar value. *1 amine or outer side, *2 acyl side, *3 side chain or, on linkers, in order; H or OH if unused. Where a SMILES comes first, the peptide text is derived from it. Side-chain parts run from the residue outwards. γGlu = O=C(O)[C@H](CCC(=O)[*:2])N[*:1]

These compounds were tested against T1, glucagon receptor (Homo sapiens, UniProt P47871) (assay: Assay (I) Glucagon activity (cAMP biosensor, FLIPR)). Details: HEK-293 cells with cloned glucagon receptor and cAMP biosensor; end point after 6 minutes.
T1 construct: expressed in transfected cells
T1 sequence (P47871 26-477): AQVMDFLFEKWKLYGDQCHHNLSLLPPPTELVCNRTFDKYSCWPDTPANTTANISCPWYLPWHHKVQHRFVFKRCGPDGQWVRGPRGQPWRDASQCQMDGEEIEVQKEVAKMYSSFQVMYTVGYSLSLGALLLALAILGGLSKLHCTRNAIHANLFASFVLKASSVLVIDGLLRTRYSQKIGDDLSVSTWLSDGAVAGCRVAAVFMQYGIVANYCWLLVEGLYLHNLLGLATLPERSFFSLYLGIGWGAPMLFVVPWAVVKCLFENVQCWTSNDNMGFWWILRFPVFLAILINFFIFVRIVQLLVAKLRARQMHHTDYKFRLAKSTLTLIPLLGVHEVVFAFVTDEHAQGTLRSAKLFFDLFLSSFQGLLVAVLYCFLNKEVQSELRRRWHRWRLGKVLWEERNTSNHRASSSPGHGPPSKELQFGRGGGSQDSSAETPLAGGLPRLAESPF
Format: cell-based
Procedure: The glucagon receptor was cloned into HEK-293 cells having a membrane bound cAMP biosensor (ACTOne™). The cells (14000 per well) were incubated (37° C., 5% CO2) overnight in 384-well plates. Next day the cells were loaded with a calcium responsive dye that only distributed into the cytoplasm. Probenecid, an inhibitor of the organic anion transporter, was added to prevent the dye from leaving the cell. A PDE inhibitor was added to prevent formatted cAMP from being degraded, The plates were placed into a […] and the glucagon analogues were added. End point data were collected after 6 minutes. An increase in intracellular cAMP was proportional to an increased in calcium concentrations in the cytoplasm. When calcium was bound the dry a fluorescence signal was generated. EC50-values were calculated in Prism5.
With `CC(=O)N[C@@H](CCC(=O)N[C@@H](CCC(=O)N[C@@H](CCC(=O)N[C@@H](CCC(=O)NCCCC[C@H](NC(=O)[C@@H](NC(=O)[C@H](Cc1ccccc1)NC(=O)[C@H](CC(=O)O)NC(=O)[C@H](CCC(N)=O)NC(=O)[C@H](C)NC(=O)[C@H](CCCNC(=N)N)NC(=O)[C@H](CCCNC(=N)N)NC(=O)[C@H](CC(C)C)NC(=O)[C@H](CC(=O)O)NC(=O)[C@H](CC(C)C)NC(=O)[C@H](Cc1ccc(O)cc1)NC(=O)[C@H](CCCCN)NC(=O)[C@H](CO)NC(=O)[C@H](Cc1ccc(O)cc1)NC(=O)[C@H](CC(=O)O)NC(=O)[C@H](CO)NC(=O)[C@@H](NC(=O)[C@H](Cc1ccccc1)NC(=O)[C@@H](NC(=O)CNC(=O)[C@H](CCC(N)=O)NC(=O)CNC(=O)[C@@H](N)Cc1c[nH]cn1)[C@@H](C)O)[C@@H](C)O)C(C)C)C(=O)N[C@@H](Cc1c[nH]c2ccccc12)C(=O)N[C@@H](CC(C)C)C(=O)N[C@@H](CC(C)C)C(=O)N[C@@H](CO)C(=O)N[C@H](C(=O)O)[C@@H](C)O)C(=O)O)C(=O)O)C(=O)O)C(=O)O` [Example 55, N^ε24-[(4S)-4-[[(4S)-4-[[(4S)-4-[[(4S)-4-acetamido-4-carboxybutanoyl]amino]-4-carboxybutanoyl]amino]-4-carboxybutanoyl]amino]-4-carboxybutanoyl]-[Gly^2,Leu^16,Lys^24,Leu^27,Ser^28]-Glucagon] (H-HGQGTFTSDYSKYLDLRRAQDFVK([γGlu-γGlu-γGlu-γGlu-Ac])WLLST-OH) the pEC50 was 10.29. Work on `CC(=O)N[C@@H](CCC(=O)N[C@@H](CCC(=O)N[C@@H](CCC(=O)N[C@@H](CCC(=O)NCCCC[C@H](NC(=O)[C@@H](NC(=O)[C@H](Cc1ccccc1)NC(=O)[C@H](CC(=O)O)NC(=O)[C@H](CCC(N)=O)NC(=O)[C@H](C)NC(=O)[C@H](CCCNC(=N)N)NC(=O)[C@H](CCCNC(=N)N)NC(=O)[C@H](CC(C)C)NC(=O)[C@H](CC(=O)O)NC(=O)[C@H](CC(C)C)NC(=O)[C@H](Cc1ccc(O)cc1)NC(=O)[C@H](CCCCN)NC(=O)[C@H](CO)NC(=O)[C@H](Cc1ccc(O)cc1)NC(=O)[C@H](CC(=O)O)NC(=O)[C@H](CO)NC(=O)[C@@H](NC(=O)[C@H](Cc1ccccc1)NC(=O)[C@@H](NC(=O)CNC(=O)[C@H](CCC(N)=O)NC(=O)[C@@H](NC(=O)[C@@H](N)Cc1c[nH]cn1)[C@@H](C)O)[C@@H](C)O)[C@@H](C)O)C(C)C)C(=O)N[C@@H](Cc1c[nH]c2ccccc12)C(=O)N[C@@H](CC(C)C)C(=O)N[C@@H](CC(C)C)C(=O)N[C@@H](CO)C(=O)N[C@H](C(=O)O)[C@@H](C)O)C(=O)O)C(=O)O)C(=O)O)C(=O)O` [Example 41, N^e24-[(4S)-4-[[(4S)-4-[[(4S)-4-[[(4S)-4-acetamido-4-carboxybutanoyl]amino]-4-carboxybutanoyl]amino]-4-carboxybutanoyl]amino]-4-carboxybutanoyl]-[Thr^2,Leu^16,Lys^24,Leu^27,Ser^28]-Glucagon] (H-HTQGTFTSDYSKYLDLRRAQDFVK([γGlu-γGlu-γGlu-γGlu-Ac])WLLST-OH) yielded a pEC50 of 11.52. Compound `CC(=O)N[C@@H](CCC(=O)N[C@@H](CCC(=O)N[C@@H](CCC(=O)N[C@@H](CCC(=O)NCCCC[C@H](NC(=O)[C@@H](NC(=O)[C@H](Cc1ccccc1)NC(=O)[C@H](CC(=O)O)NC(=O)[C@H](CCC(N)=O)NC(=O)[C@H](C)NC(=O)[C@H](CCCNC(=N)N)NC(=O)[C@H](CCCNC(=N)N)NC(=O)[C@@H](NC(=O)[C@H](CC(=O)O)NC(=O)[C@H](CC(C)C)NC(=O)[C@H](Cc1ccc(O)cc1)NC(=O)[C@H](CCCNC(=N)N)NC(=O)[C@H](CO)NC(=O)[C@H](Cc1ccc(O)cc1)NC(=O)[C@H](CC(=O)O)NC(=O)[C@H](CO)NC(=O)[C@@H](NC(=O)[C@H](Cc1ccccc1)NC(=O)[C@@H](NC(=O)CNC(=O)[C@H](CCC(N)=O)NC(=O)[C@H](CO)NC(=O)[C@@H](N)Cc1c[nH]cn1)[C@@H](C)O)[C@@H](C)O)[C@@H](C)O)C(C)C)C(=O)N[C@@H](Cc1c[nH]c2ccccc12)C(=O)N[C@@H](CC(C)C)C(=O)N[C@@H](CC(C)C)C(=O)N[C@@H](CO)C(=O)N[C@H](C(=O)N1CCC[C@H]1C(=O)O)[C@@H](C)O)C(=O)O)C(=O)O)C(=O)O)C(=O)O` [Example 26] (H-HSQGTFTSDYSRYLDTRRAQDFVK([γGlu-γGlu-γGlu-γGlu-Ac])WLLSTP-OH) has a pEC50 of 10.92. Work on `CC[C@H](C)[C@H](NC(=O)[C@H](CC(=O)O)NC(=O)[C@H](CC(C)C)NC(=O)[C@H](Cc1ccc(O)cc1)NC(=O)[C@H](CCCCN)NC(=O)[C@H](CO)NC(=O)[C@H](Cc1ccc(O)cc1)NC(=O)[C@H](CC(=O)O)NC(=O)[C@H](CO)NC(=O)[C@@H](NC(=O)[C@H](Cc1ccccc1)NC(=O)[C@@H](NC(=O)CNC(=O)[C@H](Cc1c[nH]cn1)NC(=O)[C@H](CO)NC(=O)[C@@H](N)Cc1c[nH]cn1)[C@@H](C)O)[C@@H](C)O)C(=O)N[C@@H](CCCNC(=N)N)C(=O)N[C@@H](CCCNC(=N)N)C(=O)N[C@@H](C)C(=O)N[C@@H](C)C(=O)N[C@@H](CC(=O)O)C(=O)N[C@@H](Cc1ccccc1)C(=O)N[C@H](C(=O)N[C@@H](CCCCNC(=O)CC[C@H](NC(=O)CC[C@H](NC(=O)CC[C@H](NC(=O)CC[C@H](NC(C)=O)C(=O)O)C(=O)O)C(=O)O)C(=O)O)C(=O)N[C@@H](Cc1c[nH]c2ccccc12)C(=O)N[C@@H](CC(C)C)C(=O)N[C@@H](CC(C)C)C(=O)N[C@@H](CO)C(=O)N[C@H](C(=O)O)[C@@H](C)O)C(C)C` [Example 11] (H-HSHGTFTSDYSKYLDIRRAADFVK([γGlu-γGlu-γGlu-γGlu-Ac])WLLST-OH) yielded a pEC50 of 10.91. With `CC(=O)N[C@@H](CCC(=O)N[C@@H](CCC(=O)N[C@@H](CCC(=O)N[C@@H](CCC(=O)NCCCC[C@H](NC(=O)[C@@H](NC(=O)[C@H](Cc1ccccc1)NC(=O)[C@H](CC(=O)O)NC(=O)[C@H](CCC(N)=O)NC(=O)[C@H](C)NC(=O)[C@H](CCCNC(=N)N)NC(=O)[C@H](CCCNC(=N)N)NC(=O)[C@@H](NC(=O)[C@H](CC(=O)O)NC(=O)[C@H](CC(C)C)NC(=O)[C@H](Cc1ccc(O)cc1)NC(=O)[C@H](CCCCN)NC(=O)[C@H](CO)NC(=O)[C@H](Cc1ccc(O)cc1)NC(=O)[C@H](CC(=O)O)NC(=O)[C@H](CO)NC(=O)[C@@H](NC(=O)[C@H](Cc1ccccc1)NC(=O)[C@@H](NC(=O)CNC(=O)[C@H](CCC(N)=O)NC(=O)[C@H](CO)NC(=O)[C@@H](N)Cc1c[nH]cn1)[C@@H](C)O)[C@@H](C)O)[C@@H](C)O)C(C)C)C(=O)N[C@@H](Cc1c[nH]c2ccccc12)C(=O)N[C@@H](CC(C)C)C(=O)N[C@@H](CC(C)C)C(=O)N[C@@H](CO)C(=O)N[C@H](C(=O)O)[C@@H](C)O)C(=O)O)C(=O)O)C(=O)O)C(=O)O` [Example 30] the pEC50 was 11.19.
